Test results reported in patent US9253983B2, “Triazole compound and use thereof” (KUREHA CORPORATION, priority 2011, dated 2016).

Assays:
Fusarium oxysporum = experiment: Test 2 for antifungal effect, plate medium: F.c; format: cell-based; settings: PDA plate medium
Description: (§1) Compound (1-1b) or Compound (1-2b) was dissolved in dimethyl sulfoxide, and the resulting solution was added to a PDA medium (potato dextrose-agar medium) at about 60° C. The medium and the solution were mixed thoroughly in a conical flask, poured into a petri dish, and allowed to solidify. In this way, a plate medium containing Compound (1-1b) or Compound (1-2b) at a certain concentration was prepared.
(§2) Meanwhile, test microorganisms cultured on a plate medium in advance were cut out with the use of a cork borer 4 mm in diameter, and were inoculated onto the compound-containing plate medium. After the inoculation, the pathogens were cultured at their optimum growth temperatures (for example, refer to LIST OF CULTURES 1996 microorganisms 10th edition, Institute for Fermentation (foundation)) for 1 day to 7 days, and their growth was determined by measuring the diameter of their flora. The extent of growth of the pathogens on the compound-containing plate medium was compared with that of pathogens on a plate medium where no compound was added, and mycelial growth inhibition rate was calculated as in Experiment Example 10. Note that, in Experiment Example 11, controls used in the antifungal effect tests are Compound (1-1a) and Compound (1-2a) instead of Compound (1-1b) and Compound (1-2b), respectively.
(§3) The results were rated on a 1-to-5 scale as in Experiment Example 10.

Phaeosphaeria nodorum = experiment: Test 1 for antifungal effect, plate medium: P.n; format: cell-based; settings: PDA plate medium
Description: as §1, with “(1-1a)” for “(1-1b)”, “(1-2a)” for “(1-2b)”
(§4) Meanwhile, test microorganisms cultured on a plate medium in advance were cut out with the use of a cork borer 4 mm in diameter, and were inoculated onto the compound-containing plate medium. After the inoculation, the microorganisms were cultured at their optimum growth temperatures (for example, refer to LIST OF CULTURES 1996 microorganisms 10th edition, Institute for Fermentation (foundation)) for 1 day to 7 days, and their growth was determined by measuring the diameter of their flora. The extent of growth of the microorganisms on the compound-containing plate medium was compared with that of microorganisms on a plate medium where no compound was added, and mycelial growth inhibition rate was calculated by the following equation: R=100(dc−dt)/dc where R is mycelial growth inhibition rate (%), dc is the flora diameter in untreated plate, and dt is the flora diameter in plate treated with the compound.
(§5) A larger antifungal index indicates a better antifungal effect.

wheat = experiment: Growth inhibition (adverse effects) of seed treatment on wheat seeds; format: in vivo; settings: wheat, 20 days after sowing
Description: A pot experiment was performed to evaluate the growth inhibition (adverse effects) caused by the seed treatment. Compound (1-1a) and Compound (1-2a), each of which was dissolved in DMSO to make up such a concentration that the seeds would be treated in treatment amount of 2 g to 200 g ai/100 kg seeds, were each applied to wheat seeds in a vial, and thereafter 8 wheat seeds were sowed in an 80-cm^2 pot. The pot was kept in a greenhouse with water supplied to its bottom. 20 days after the sowing, a growth measure of wheat was evaluated. A growth inhibition index was calculated based on the criteria shown by Table 10. In Table 10, a smaller growth inhibition index indicates a lesser adverse effect of growth inhibition caused by the treatment with the use of a plant disease controlling agent.

Puccinia recondita = experiment: Efficacy of seed treatment on wheat brown rust; format: in vivo; settings: wheat seed treatment 20 g ai/100 kg seeds, 12 days after inoculation
Description: A pot experiment was performed to evaluate the efficacy of seed treatment in controlling wheat leaf rust. Compound (1-1a) and Compound (1-2a), each of which was dissolved in DMSO to make up such a concentration that the seeds would be treated in treatment amount of 20 g ai/100 kg seeds, were each applied to wheat seeds in a vial, and thereafter 8 wheat seeds were sowed on an 80-cm^2 pot. The pot was kept in a greenhouse with water supplied to its bottom. 21 days after the sowing, the wheat seeds were inoculated with Puccinia recondita, and kept in a wet box for 2 days. After that, the pot was again kept in the greenhouse with water supplied to its bottom. 12 days after the inoculation, the percentage of affected area was found, and the protective value was calculated by the following equation. Protective value (%)=(1−(Percentage of affected area in treated region/Percentage of affected area in untreated region))×100

Microdochium nivale = experiment: Test 1 for antifungal effect, plate medium: M.n; format: cell-based; settings: PDA plate medium
Description: as §1, with “(1-1a)” for “(1-1b)”, “(1-2a)” for “(1-2b)”
as §4, §5

Septoria tritici = experiment: Test 2 for antifungal effect, plate medium: S.t; format: cell-based; settings: PDA plate medium
Description: as §1, §2, §3

Ustilago nuda = experiment: Test 2 for antifungal effect, plate medium: U.n; format: cell-based; settings: PDA plate medium
Description: as §1, §2, §3

Gibberella fujikuroi = experiment: Test 1 for antifungal effect, plate medium: G.f; format: cell-based; settings: PDA plate medium
Description: as §1, with “(1-1a)” for “(1-1b)”, “(1-2a)” for “(1-2b)”
as §4, §5

Gaeumannomyces graminis = experiment: Test 1 for antifungal effect, plate medium: G.g; format: cell-based; settings: PDA plate medium
Description: as §1, with “(1-1a)” for “(1-1b)”, “(1-2a)” for “(1-2b)”
as §4, §5

Penicillium italicum = experiment: Test 2 for antifungal effect, plate medium: P.i; format: cell-based; settings: PDA plate medium
Description: as §1, §2, §3

Sclerotinia sclerotiorum = experiment: Test 1 for antifungal effect, plate medium: S.s; format: cell-based; settings: PDA plate medium
Description: as §1, with “(1-1a)” for “(1-1b)”, “(1-2a)” for “(1-2b)”
as §4, §5

CC1(CCl)CCC(Cc2ccc(Cl)cc2)C1(O)Cn1cncn1 (single isomer, unassigned) [Compound (1-1a), (1,2-cis, 1,5-cis)-5-(4-chlorobenzyl)-2-chloromethyl-2-methyl-1-(1H-1,2,4-triazole-1-ylmethyl)cyclopentanol]
Antifungal index (mycelial growth inhibition rate) (Fusarium oxysporum; 0.04 mg/L): 1 (Less than 60%) | Antifungal index (mycelial growth inhibition rate) (Fusarium oxysporum; 0.08 mg/L): 3 (Less than 80% but not less than 70%) | Antifungal index (mycelial growth inhibition rate) (Fusarium oxysporum; 0.16 mg/L): 4 (Less than 90% but not less than 80%) | Antifungal index (mycelial growth inhibition rate) (Fusarium oxysporum; 0.31 mg/L): 4 (Less than 90% but not less than 80%) | Antifungal index (mycelial growth inhibition rate) (Fusarium oxysporum; 0.63 mg/L): 5 (90% or greater) | Antifungal index (mycelial growth inhibition rate) (Fusarium oxysporum; 1.25 mg/L): 5 (90% or greater) | Antifungal index (mycelial growth inhibition rate) (Phaeosphaeria nodorum; 0.16 mg/L): 2 (Less than 70% but not less than 60%) | Antifungal index (mycelial growth inhibition rate) (Phaeosphaeria nodorum; 0.31 mg/L): 3 (Less than 80% but not less than 70%) | Antifungal index (mycelial growth inhibition rate) (Phaeosphaeria nodorum; 0.63 mg/L): 5 (90% or greater) | Antifungal index (mycelial growth inhibition rate) (Phaeosphaeria nodorum; 1.25 mg/L): 5 (90% or greater) | Antifungal index (mycelial growth inhibition rate) (Phaeosphaeria nodorum; 2.50 mg/L): 5 (90% or greater) | Growth inhibition index (wheat; treatment amount 2 g ai/100 kg seeds): 0 (50% or more) | Growth inhibition index (wheat; treatment amount 20 g ai/100 kg seeds): 0 (50% or more) | Growth inhibition index (wheat; treatment amount 200 g ai/100 kg seeds): 0 (50% or more) | Protective value (%) (Puccinia recondita): 90% | Antifungal index (mycelial growth inhibition rate) (Microdochium nivale; 0.16 mg/L): 1 (Less than 60%) | Antifungal index (mycelial growth inhibition rate) (Microdochium nivale; 0.31 mg/L): 3 (Less than 80% but not less than 70%) | Antifungal index (mycelial growth inhibition rate) (Microdochium nivale; 0.63 mg/L): 3 (Less than 80% but not less than 70%) | Antifungal index (mycelial growth inhibition rate) (Microdochium nivale; 1.25 mg/L): 4 (Less than 90% but not less than 80%) | Antifungal index (mycelial growth inhibition rate) (Microdochium nivale; 2.50 mg/L): 5 (90% or greater) | Antifungal index (mycelial growth inhibition rate) (Septoria tritici; 0.04 mg/L): 1 (Less than 60%) | Antifungal index (mycelial growth inhibition rate) (Septoria tritici; 0.08 mg/L): 1 (Less than 60%) | Antifungal index (mycelial growth inhibition rate) (Septoria tritici; 0.16 mg/L): 1 (Less than 60%) | Antifungal index (mycelial growth inhibition rate) (Septoria tritici; 0.31 mg/L): 1 (Less than 60%) | Antifungal index (mycelial growth inhibition rate) (Septoria tritici; 0.63 mg/L): 1 (Less than 60%) | Antifungal index (mycelial growth inhibition rate) (Septoria tritici; 1.25 mg/L): 1 (Less than 60%) | Antifungal index (mycelial growth inhibition rate) (Ustilago nuda; 0.04 mg/L): 1 (Less than 60%) | Antifungal index (mycelial growth inhibition rate) (Ustilago nuda; 0.08 mg/L): 1 (Less than 60%) | Antifungal index (mycelial growth inhibition rate) (Ustilago nuda; 0.16 mg/L): 1 (Less than 60%) | Antifungal index (mycelial growth inhibition rate) (Ustilago nuda; 0.31 mg/L): 2 (Less than 70% but not less than 60%) | Antifungal index (mycelial growth inhibition rate) (Ustilago nuda; 0.63 mg/L): 3 (Less than 80% but not less than 70%) | Antifungal index (mycelial growth inhibition rate) (Ustilago nuda; 1.25 mg/L): 4 (Less than 90% but not less than 80%) | Antifungal index (mycelial growth inhibition rate) (Gibberella fujikuroi; 0.16 mg/L): 5 (90% or greater) | Antifungal index (mycelial growth inhibition rate) (Gibberella fujikuroi; 0.31 mg/L): 5 (90% or greater) | Antifungal index (mycelial growth inhibition rate) (Gibberella fujikuroi; 0.63 mg/L): 5 (90% or greater) | Antifungal index (mycelial growth inhibition rate) (Gibberella fujikuroi; 1.25 mg/L): 5 (90% or greater) | Antifungal index (mycelial growth inhibition rate) (Gibberella fujikuroi; 2.50 mg/L): 5 (90% or greater) | Antifungal index (mycelial growth inhibition rate) (Gaeumannomyces graminis; 0.16 mg/L): 3 (Less than 80% but not less than 70%) | Antifungal index (mycelial growth inhibition rate) (Gaeumannomyces graminis; 0.31 mg/L): 5 (90% or greater) | Antifungal index (mycelial growth inhibition rate) (Gaeumannomyces graminis; 0.63 mg/L): 5 (90% or greater) | Antifungal index (mycelial growth inhibition rate) (Gaeumannomyces graminis; 1.25 mg/L): 5 (90% or greater) | Antifungal index (mycelial growth inhibition rate) (Gaeumannomyces graminis; 2.50 mg/L): 5 (90% or greater) | Antifungal index (mycelial growth inhibition rate) (Penicillium italicum; 0.04 mg/L): 1 (Less than 60%) | Antifungal index (mycelial growth inhibition rate) (Penicillium italicum; 0.08 mg/L): 4 (Less than 90% but not less than 80%) | Antifungal index (mycelial growth inhibition rate) (Penicillium italicum; 0.16 mg/L): 4 (Less than 90% but not less than 80%) | Antifungal index (mycelial growth inhibition rate) (Penicillium italicum; 0.31 mg/L): 5 (90% or greater) | Antifungal index (mycelial growth inhibition rate) (Penicillium italicum; 0.63 mg/L): 5 (90% or greater) | Antifungal index (mycelial growth inhibition rate) (Penicillium italicum; 1.25 mg/L): 5 (90% or greater) | Antifungal index (mycelial growth inhibition rate) (Sclerotinia sclerotiorum; 0.16 mg/L): 5 (90% or greater) | Antifungal index (mycelial growth inhibition rate) (Sclerotinia sclerotiorum; 0.31 mg/L): 5 (90% or greater) | Antifungal index (mycelial growth inhibition rate) (Sclerotinia sclerotiorum; 0.63 mg/L): 5 (90% or greater) | Antifungal index (mycelial growth inhibition rate) (Sclerotinia sclerotiorum; 1.25 mg/L): 5 (90% or greater) | Antifungal index (mycelial growth inhibition rate) (Sclerotinia sclerotiorum; 2.50 mg/L): 5 (90% or greater)
